# Target: KRas G12C (Homo sapiens, UniProt P01116, G12C)
# Experiment: Cellular inhibition of KRas G12C measured by Phospho-ERK in NCI-H358 cells
# Assay type: cell-based
# Conditions: pERK(Thr202/Tyr204) normalized with GAPDH, NCI-H358 cells, 3 hours; read-out: IC50
# Method in brief: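 Following 8-12 h attachment, NCI-H358 cells got serially diluted compound (0.5% DMSO) for 3 hours. Cells were then fixed, permeabilized with cold methanol, and stained for pERK(Thr202/Tyr204) and GAPDH. Ratios were converted to percent of DMSO control, with IC50 obtained by four-parameter regression.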
# Sequence of KRas G12C (P01116 1-188 isoform P01116-2 G12C): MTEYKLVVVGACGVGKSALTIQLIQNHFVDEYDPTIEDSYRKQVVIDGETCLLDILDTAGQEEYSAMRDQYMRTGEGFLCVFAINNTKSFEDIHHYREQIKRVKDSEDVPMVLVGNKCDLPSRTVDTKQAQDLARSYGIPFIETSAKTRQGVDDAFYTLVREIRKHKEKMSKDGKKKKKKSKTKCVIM
row,Structure (SMILES),IC50 [µM]
1,"C=CC(=O)N1CCN(c2nc(OCCO)nc3c2CCN(c2cc(O)cc4ccccc24)C3)CC1 [Example 142, 1-[4-[2-(2-hydroxyethoxy)-7-(3-hydroxy-1-naphthyl)-6,8-dihydro-5H-pyrido[3,4-d]pyrimidin-4-yl]piperazin-1-yl]prop-2-en-1-one]",> 1
2,"C=CC(=O)N1CCN(c2nc(N3CCC(N(C)C)C3)nc3c2CCN(c2cc(O)cc4ccccc24)C3)CC1 (stereo not shown) [Example 13, 1-(4-(2-(3-(dimethylamino)pyrrolidin-1-yl)-7-(3-hydroxynaphthalen-1-yl)-5,6,7,8-tetrahydropyrido[3,4-d]pyrimidin-4-yl)piperazin-1-yl)prop-2-en-1-one]",> 1
3,"C=CC(=O)N1CCN(c2nc(O[C@H](C)CN(C)C)nc3c2CCN(c2c(C)ccc4[nH]ncc24)C3)CC1 [Example 162, 1-[4-[2-[(1R)-2-(dimethylamino)-1-methyl-ethoxy]-7-(5-methyl-1H-indazol-4-yl)-6,8-dihydro-5H-pyrido[3,4-d]pyrimidin-4-yl]piperazin-1-yl]prop-2-en-1-one]",> 1
4,"C=CC(=O)N1[C@H](C)CN(c2nc(OCCCN3CCOCC3)nc3c2CCN(c2cc(O)cc4ccccc24)C3)C[C@@H]1C [Example 191, 1-((2S,6R)-4-(7-(3-hydroxynaphthalen-1-yl)-2-(3-morpholinopropoxy)-5,6,7,8-tetrahydropyrido[3,4-d]pyrimidin-4-yl)-2,6-dimethylpiperazin-1-yl)prop-2-en-1-one]",> 1
5,"C=CC(=O)N1CCN(c2nc(OCCCN3CCOCC3)nc3c2CCN(c2cc(O)cc4cc(C)ccc24)C3)CC1 [Example 43, 1-(4-(7-(3-hydroxy-6-methylnaphthalen-1-yl)-2-(3-morpholinopropoxy)-5,6,7,8-tetrahydropyrido[3,4-d]pyrimidin-4-yl)piperazin-1-yl)prop-2-en-1-one]",> 1
6,"C=CC(=O)N1CCN(c2nc(OC[C@@H]3CCCN3C)nc3c2CCN(c2cccc4ccccc24)C3)C[C@H]1C [Example 201, 1-((R)-2-methyl-4-(2-(((S)-1-methylpyrrolidin-2-yl)methoxy)-7-(naphthalen-1-yl)-5,6,7,8-tetrahydropyrido[3,4-d]pyrimidin-4-yl)piperazin-1-yl)prop-2-en-1-one]",> 1
7,C=CC(=O)N1CCN(c2nc(-c3cccc(CN4CCOCC4)c3)nc3c2CCN(c2cc(O)cc4ccccc24)C3)CC1 [Example 186],> 1
8,"C=CC(=O)N1CCN(c2nc(OC[C@@H]3CCCCN3C)nc3c2CCN(c2cc(O)cc4ccccc24)C3)CC1 [Example 196, (S)-1-(4-(7-(3-hydroxynaphthalen-1-yl)-2-((1-methylpiperidin-2-yl)methoxy)-5,6,7,8-tetrahydropyrido[3,4-d]pyrimidin-4-yl)piperazin-1-yl)prop-2-en-1-one]",0.0001 to 1
9,"C=CC(=O)N1CCN(c2nc(O[C@H](C)CN(C)C)nc3c2CCN(c2cccc4ccccc24)C3)CC1 [Example 68, (R)-1-(4-(2-((1-(dimethylamino)propan-2-yl)oxy)-7-(naphthalen-1-yl)-5,6,7,8-tetrahydropyrido[3,4-d]pyrimidin-4-yl)piperazin-1-yl)prop-2-en-1-one]",> 1
10,"C=CC(=O)N1CCN(c2nc(OCCN3CCCC[C@@H]3C)nc3c2CCN(c2cc(O)cc4ccccc24)C3)CC1 [Example 88, (S)-1-(4-(7-(3-hydroxynaphthalen-1-yl)-2-(2-(2-methylpiperidin-1-yl)ethoxy)-5,6,7,8-tetrahydropyrido[3,4-d]pyrimidin-4-yl)piperazin-1-yl)prop-2-en-1-one]",0.0001 to 1

# Other lines, results leading:
row,IC50 [µM],Structure (SMILES)
1,> 1,"CC#CC(=O)N1CCN(c2nc(OC[C@@H]3CCCN3C)nc3c2CCN(c2cccc(C)c2C)C3)C[C@@H]1CC#N [Example 389, 2-((S)-1-(but-2-ynoyl)-4-(7-(2,3-dimethylphenyl)-2-(((S)-1-methylpyrrolidin-2-yl)methoxy)-5,6,7,8-tetrahydropyrido[3,4-d]pyrimidin-4-yl)piperazin-2-yl)acetonitrile]"
2,0.0001 to 1,"C=CC(=O)N1CCN(c2nc(OC[C@@H]3CCCN3C)nc3c2CCN(c2cccc4ccc(F)cc24)C3)C[C@@H]1CC#N [Example 333, 2-[(2S)-4-[7-(7-fluoro-1-naphthyl)-2-[[(2S)-1-methylpyrrolidin-2-yl]methoxy]-6,8-dihydro-5H-pyrido[3,4-d]pyrimidin-4-yl]-1-prop-2-enoyl-piperazin-2-yl]acetonitrile]"
3,> 1,"C=CC(=O)N1CCN(c2nc(OC[C@@H]3CCCN3C)nc3c2CCN(c2cccc4cccnc24)C3)CC1CC#N (stereo partly drawn) [Example 247, 2-(1-acryloyl-4-(2-(((S)-1-methylpyrrolidin-2-yl)methoxy)-7-(quinolin-8-yl)-5,6,7,8-tetrahydropyrido[3,4-d]pyrimidin-4-yl)piperazin-2-yl)acetonitrile]"
4,0.0001 to 1,"C=CC(=O)N1CCN(c2nc(OC[C@@H]3CCCCN3C)nc3c2CCN(c2cccc4ccccc24)C3)C[C@@H]1CC#N [Example 377, 2-((S)-1-acryloyl-4-(2-(((S)-1-methylpiperidin-2-yl)methoxy)-7-(naphthalen-1-yl)-5,6,7,8-tetrahydropyrido[3,4-d]pyrimidin-4-yl)piperazin-2-yl)acetonitrile]"
5,0.0001 to 1,"Cc1cccc(N2CCc3c(nc(OC[C@@H]4CCCN4C)nc3N3CCN(C(=O)/C=C/C(F)(F)F)[C@@H](CC#N)C3)C2)c1C [Example 486, 2-((S)-4-(7-(2,3-dimethylphenyl)-2-(((S)-1-methylpyrrolidin-2-yl)methoxy)-5,6,7,8-tetrahydropyrido[3,4-d]pyrimidin-4-yl)-1-((E)-4,4,4-trifluorobut-2-enoyl)piperazin-2-yl)acetonitrile]"
6,0.0001 to 1,"Cc1cccc2cccc(N3CCc4c(nc(OC[C@@H]5CC(F)(F)CN5C)nc4N4CCN(C(=O)/C=C/CN5CC(F)C5)[C@@H](CC#N)C4)C3)c12 [Example 520, 2-[(2S)-4-[2-[[(2S)-4,4-difluoro-1-methyl-pyrrolidin-2-yl]methoxy]-7-(8-methyl-1-naphthyl)-6,8-dihydro-5H-pyrido[3,4-d]pyrimidin-4-yl]-1-[(E)-4-(3-fluoroazetidin-1-yl)but-2-enoyl]piperazin-2-yl]acetonitrile]"
7,0.0001 to 1,"C=CC(=O)N1CCN(c2nc(OC[C@@H]3CCCN3C)nc3c2CCN(c2cccc4cccc(Br)c24)C3)C[C@@H]1CC#N [Example 464, 2-((S)-1-acryloyl-4-(7-(8-bromonaphthalen-1-yl)-2-(((S)-1-methylpyrrolidin-2-yl)methoxy)-5,6,7,8-tetrahydropyrido[3,4-d]pyrimidin-4-yl)piperazin-2-yl)acetonitrile]"
8,0.0001 to 1,"C=C(F)C(=O)N1CCN(c2nc(OC[C@@H]3CCCN3C)nc3c2CCN(c2cncc4cccc(C)c24)C3)C[C@@H]1CC#N [Example 619, 2-[(2S)-1-(2-fluoroprop-2-enoyl)-4-[7-(5-methyl-4-isoquinolyl)-2-[[(2S)-1-methylpyrrolidin-2-yl]methoxy]-6,8-dihydro-5H-pyrido[3,4-d]pyrimidin-4-yl]piperazin-2-yl]acetonitrile]"
9,0.0001 to 1,"C=C(C(=O)N1CCN(c2nc(OC[C@@H]3CCCN3C)nc3c2CCN(c2cccc4cccc(C)c24)C3)C[C@@H]1CC#N)C(F)(F)F [Example 492, 2-((S)-4-(7-(8-methylnaphthalen-1-yl)-2-(((S)-1-methylpyrrolidin-2-yl)methoxy)-5,6,7,8-tetrahydropyrido[3,4-d]pyrimidin-4-yl)-1-(2-(trifluoromethyl)acryloyl)piperazin-2-yl)acetonitrile]"

# From patent US10689377B2 (Mirati Therapeutics, Inc., priority 2017, dated 2020)
